From patent US8252793B2, “Bradykinin receptor agonists and uses thereof to treat ocular hypertension and glaucoma” (Alcon Research, Ltd., priority 2010, dated 2012)
Where two headings read alike, the source gives them in different places.

Tests used:
[1] = molecular target: T1, recombinant human bradykinin B2 receptor (Homo sapiens, UniProt P30411); experiment: [3H]-BK competition radioligand binding to human cloned B2 receptor (CHO cell membranes)
T1 construct: expressed in transfected cells; host or cells: Chinese hamster ovary (CHO) cells, membrane homogenates
T1 sequence (P30411 1-391): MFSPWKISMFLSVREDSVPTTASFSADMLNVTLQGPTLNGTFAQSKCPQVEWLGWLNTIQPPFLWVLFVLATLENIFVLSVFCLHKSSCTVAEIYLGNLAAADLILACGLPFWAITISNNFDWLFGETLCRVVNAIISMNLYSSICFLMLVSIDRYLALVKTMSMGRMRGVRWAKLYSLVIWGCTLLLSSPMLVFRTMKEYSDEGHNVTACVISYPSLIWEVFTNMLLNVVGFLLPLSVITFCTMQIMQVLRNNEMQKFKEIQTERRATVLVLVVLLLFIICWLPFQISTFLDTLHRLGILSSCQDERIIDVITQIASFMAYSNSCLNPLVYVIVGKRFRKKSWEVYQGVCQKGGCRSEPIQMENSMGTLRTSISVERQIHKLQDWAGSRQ
Description: Chinese hamster ovary (CHO) cell membrane homogenates (2.5 μg protein) expressing the recombinant human bradykinin B2 receptor were incubated for 60 min at 23° C. with 0.2 nM [^3H]-bradykinin (95.5 Ci/mmole, PerkinElmer) in the absence or presence of the test compound in a buffer containing 50 mM Tris/HCl (pH 7.4), 0.2 g/L 1-10-phenanthroline and 0.1% BSA. All reagent and test compound additions to the assay plates were made using Biomek 3000 robotic workstations (Beckman Instruments, Fullerton, Calif.). Nonspecific binding was determined in the presence of 1 μM unlabeled bradykinin. Following the incubation, the assay was terminated by rapid filtration under vacuum through glass fiber filters (GF/C, PerkinElmer) presoaked with 0.3% polyethyleneimine and rinsed several times with an ice-cold 50 mM Tris-HCl buffer using a 96-sample cell harvester (Tomtec). The filters were air-dried and the radioactivity counted in a beta-scintillation counter (Topcount, PerkinElmer) using a scintillation cocktail (Microscint 20, PerkinElmer) (Sharif and Whiting, Neurochem. Int. 18: 89-96, 1991). Competitive binding inhibition curves were generated using a 7-point concentration—response of test compound in duplicate. Bradykinin peptide was also tested as an internal control in the assay. The data were analyzed using nonlinear, iterative curve-fitting to obtain the potency and intrinsic activities of the test agents as previously described (Sharif et al. J. Pharmacol. Exp. Ther. 286: 1094-1102, 1998; Sharif et al. Invest Ophthalmol. Vis. Sci. 39:2562-2571, 1998; Kelly et al. J. Pharmacol. Exp. Ther. 304: 238-245, 2003). Determined IC50 values were converted to Ki values using the standard Cheng-Prusoff equation.

[2] = molecular target: T2, BK receptors in human ciliary muscle cells (h-CM) (Homo sapiens, UniProt P30411); experiment: Functional assay measuring [Ca2+]i mobilization (FLIPR) in h-CM cells; assay type: cell-based; conditions: class symbols (in μM), read-out: CaM (EC50)
T2 construct: h-CM cells expressing BK receptors were seeded; endogenous in cells; host or cells: human ciliary muscle (h-CM) cells
T2 sequence (P30411 1-391): T1 sequence (P30411 1-391)
Description: On the day of the experiment, media was removed, cells were rinsed and 50 μL of serum-free media added. One vial of FLIPR Calcium Assay Kit dye was reconstituted in 50 mL of a FLIPR buffer consisting of Hank's Balanced Salt Solution (HBSS), 20 mM HEPES, and 2.5 mM probenecid, pH 7.4. Cells were loaded with the calcium-sensitive dye by addition of an equal volume (50 μL) to each well of the 96-well plate and incubated with dye for 1 h at 23° C. […] After this time, the test compound plate and cell plate were placed in a Fluorescence Imaging Plate Reader (FLIPR-Tetra®) instrument (Molecular Devices/MDSPharma, Sunnyvale, Calif.). At the beginning of an experimental run, a signal test was performed to check the basal fluorescence signal from the dye-loaded cells and the uniformity of the signal across the plate. […] An aliquot (25 μL) of the test compound was added to the existing 100 μL dye-loaded cells at a dispensing speed of 50 μL/sec. Intracellular calcium mobilization was measured by monitoring real-time changes in cellular fluorescence upon test compound addition. Fluorescence data were collected in real-time at 1.0 sec intervals for the first 60 seconds and at 6.0 second intervals for an additional 120 seconds. Baseline fluorescence readings were normalized across the plate and background-corrected from negative control wells. […] EC50 values were determined by 4-parameter nonlinear curve fitting of the concentration-response curve. Calibration of the instrument was performed using manufacturer's standard procedures.

[3] = tested on: primary human ciliary muscle cells (h-CM); experiment: Total prostaglandin (PG) release from primary h-CM cells (EIA); assay type: cell-based; conditions: 1 hour at 37° C., class symbols (in μM)
Description: BK agonist compounds of Formula 1 were evaluated for the ability to induce prostaglandin (PG) release from primary human ciliary muscle cells (h-CM). Briefly, h-CM cells were grown to confluence in FNC-coated 24-well culture plates and serum-starved (0.8% FBS) for 24 hours prior to the experiment. Cells were stimulated with a 9-pt concentration-response (0.1 nM-10 μM) of bradykinin or BK agonist for 1 hour at 37° C. with subsequent sample recovery and processing for total PG measurement. Total PG measurement was determined using a total Prostaglandin Screening EIA kit (cat#514012) purchased from Cayman Chemical (Ann Arbor, Mich.). The assay was conducted according to the package insert from the manufacturer.

[4] = 0.2 nM [3H]-bradykinin, CHO membranes, 60 min 23° C., mean ± SEM or single value, Ki from IC50 by Cheng-Prusoff, read-out: [3H]-BK Binding to Human Cloned B2 Receptor (Ki)
[5] = same assay as E1, given as class symbols (in μM), read-out: [3H]-BK Binding to Human Cloned B2 Receptor (Ki, nM), class symbols

3-(4-acetylpiperazin-1-yl)-N-(2-((2,4-dichloro-3-(((2-methoxy-1-(pyridin-2-ylmethyl)-1H-benzo[d]imidazol-4-yl)oxy)methyl)phenyl)(methyl)amino)-2-oxoethyl)propanamide [Compound 16]
Ki [1, 4]: 0.985 ± 0.473 µM
Ki [1, 5]: 0.1 to 1 µM
EC50 [2]: 0.1 to 1 µM

4-(3-((2-((2,4-dichloro-3-(((2-methyl-4-(pyridin-2-ylmethoxy)quinolin-8-yl)oxy)methyl)phenyl)(methyl)amino)-2-oxoethyl)amino)-3-oxopropyl)-N-methylbenzamide [Compound 31]
EC50 [2]: < 0.1 µM
EC50 [3]: 0.1 to 1 µM

4-((2-((2-((3-(((2-methoxy-1-(pyridin-2-ylmethyl)-1H-benzo[d]imidazol-4-yl)oxy)methyl)-2,4-dimethylphenyl)(methyl)amino)-2-oxoethyl)amino)-2-oxoethyl)amino)-N-methylpiperidine-1-carboxamide [Compound 21]
Ki [1, 4]: 0.881 ± 0.263 µM
Ki [1, 5]: 0.1 to 1 µM
EC50 [2]: 0.1 to 1 µM

5-(3-((2-((2,4-dichloro-3-(((2-methyl-4-((pyridin-2-ylmethyl)amino)quinolin-8-yl)oxy)methyl)phenyl)(methyl)amino)-2-oxoethyl)amino)-3-oxopropyl)-N-methylpicolinamide [Compound 49]
EC50 [2]: 0.1 to 1 µM
EC50 [3]: 0.1 to 1 µM

COc1nc2c(OCc3c(Cl)ccc(N(C)C(=O)CNC(=O)CCc4ccc(NS(C)(=O)=O)nc4)c3Cl)cccc2n1Cc1ccccn1 [Compound 5, N-(2-((2,4-dichloro-3-(((2-methoxy-1-(pyridin-2-ylmethyl)-1H-benzo[d]imidazol-4-yl)oxy)methyl)phenyl)(methyl)amino)-2-oxoethyl)-3-(6-(methylsulfonamido)pyridin-3-yl)propanamide]
Ki [1, 4]: 0.071 ± 0.03 µM
EC50 [2]: 0.1 to 1 µM

COC(=O)Nc1ccc(CCC(=O)NCC(=O)N(C)c2ccc(C)c(COc3cccc4c3nc(OC)n4Cc3ccccn3)c2C)cn1 [Compound 6]
Ki [1, 4]: 0.01 ± 0.002 µM
Ki [1, 5]: < 0.1 µM
EC50 [2]: < 0.1 µM

COc1nc2c(OCc3c(Cl)ccc(N(C)C(=O)CNC(=O)CN4CCOCC4)c3Cl)cccc2n1Cc1ccccn1 [Compound 14, N-(2,4-dichloro-3-(((2-methoxy-1-(pyridin-2-ylmethyl)-1H-benzo[d]imidazol-4-yl)oxy)methyl)phenyl)-N-methyl-2-(2-morpholinoacetamido)acetamide]
Ki [1, 4]: 0.197 µM
EC50 [2]: 0.1 to 1 µM

COc1nc2c(OCc3c(Cl)ccc(N(C)C(=O)CNC(=O)CN4CCC(NC(C)=O)CC4)c3Cl)cccc2n1Cc1ccccn1 [Compound 15, 2-(2-(4-acetamidopiperidin-1-yl)acetamido)-N-(2,4-dichloro-3-(((2-methoxy-1-(pyridin-2-ylmethyl)-1H-benzo[d]imidazol-4-yl)oxy)methyl)phenyl)-N-methylacetamide]
Ki [1, 4]: 0.467 µM
EC50 [2]: 0.1 to 1 µM

COc1nc2c(OCc3c(Cl)ccc(N(C)C(=O)CNC(=O)CCN4CCN(C(=O)N(C)C)CC4)c3Cl)cccc2n1Cc1ccccn1 [Compound 17]
Ki [1, 4]: 0.274 ± 0.069 µM
EC50 [2]: 0.1 to 1 µM

COC(=O)N1CCN(CCC(=O)NCC(=O)N(C)c2ccc(Cl)c(COc3cccc4c3nc(OC)n4Cc3ccccn3)c2Cl)CC1 [Compound 18]
Ki [1, 4]: 0.239 ± 0.15 µM
EC50 [2]: 0.1 to 1 µM

CCc1nc2c(OCc3c(Cl)ccc(N(C)C(=O)CNC(=O)CNC4CCN(C(=O)NC)CC4)c3Cl)cccn2c1C(O)c1ccccn1 (stereo not drawn) [Compound 23]
Ki [1, 4]: 1.73 ± 0.428 µM
EC50 [2]: > 1 µM

CCc1nc2c(OCc3c(Cl)ccc(N(C)C(=O)CNC(=O)CCN4CCN(C(=O)NC)CC4)c3Cl)cccn2c1C(O)c1ccccn1 (stereo not drawn) [Compound 26]
Ki [1, 4]: 2.14 ± 0.223 µM
EC50 [2]: 0.1 to 1 µM

CC(=O)Nc1ccc(CC(=O)NCC(=O)N(C)c2ccc(Cl)c(COc3cccc4c(OCc5ccccn5)cc(C)nc34)c2Cl)cc1 [Compound 50]
Ki [1, 4]: 0.015 µM
EC50 [2]: 0.1 to 1 µM

COc1nc2c(OCc3c(C)ccc(N(C)C(=O)CNC(=O)CN4CCC(NC(C)=O)CC4)c3C)cccc2n1Cc1ccccn1 [Compound 51]
Ki [1, 4]: 0.701 µM
EC50 [2]: 0.1 to 1 µM

CNC(=O)C1CCN(CC(=O)NCC(=O)N(C)c2ccc(C)c(COc3cccc4c3nc(OC)n4Cc3ccccn3)c2C)CC1 [Compound 52]
Ki [1, 4]: 0.0157 µM
EC50 [2]: 0.1 to 1 µM

CNC(=O)CN1CCN(CC(=O)NCC(=O)N(C)c2ccc(Cl)c(COc3cccc4c3nc(OC)n4Cc3ccccn3)c2Cl)CC1 [Compound 53]
Ki [1, 4]: 0.34 µM
EC50 [2]: 0.1 to 1 µM

COc1nc2c(OCc3c(Cl)ccc(N(C)C(=O)CNC(=O)CCN4CCOCC4)c3Cl)cccc2n1Cc1ccccn1 [Compound 54]
Ki [1, 4]: 0.455 µM
EC50 [2]: 0.1 to 1 µM

COc1nc2c(OCc3c(Cl)ccc(N(C)C(=O)CNC(=O)CCCN4CCN(C(C)=O)CC4)c3Cl)cccc2n1Cc1ccccn1 [Compound 55]
Ki [1, 4]: 0.984 µM
EC50 [2]: 0.1 to 1 µM

COc1nc2c(OCc3c(Cl)ccc(N(C)C(=O)CNC(=O)CCN4CCNCC4)c3Cl)cccc2n1Cc1ccccn1 [Compound 58]
Ki [1, 4]: 3.15 µM
EC50 [2]: > 1 µM

CCc1nc2c(OCc3c(Cl)ccc(N(C)C(=O)CNC(=O)CCN4CCN(C(=O)NC)CC4)c3Cl)cccn2c1C(O)c1ccccn1 (stereo not drawn) [Compound 59]
Ki [1, 4]: 2.14 µM
EC50 [2]: 0.1 to 1 µM

CCc1nc2c(OCc3c(C)ccc(N(C)C(=O)CNC(=O)CCN4CCN(C(=O)NC)CC4)c3C)cccc2n1Cc1ccccn1 [Compound 60]
EC50 [2]: 0.1 to 1 µM

N=C(N)NCCC[C@H](NC(=O)[C@H](Cc1ccccc1)NC(=O)[C@@H]1CCCN1C(=O)[C@H](CO)NC(=O)[C@H](Cc1ccccc1)NC(=O)CNC(=O)[C@@H]1C[C@@H](O)CN1C(=O)[C@@H]1CCCN1C(=O)[C@@H](N)CCCNC(=N)N)C(=O)O [Hyp^3-BK, reference compound]
Ki [1]: 0.0019 ± 0.0011 µM
Ki ([1]; [3H]-BK Binding to Human Cloned B2 Receptor (Ki, nM), class symbols, same assay as E1, given as class symbols (in μM)): < 0.1 µM

NCCCC[C@H](N)C(=O)N[C@@H](CCCN=C(N)N)C(=O)N1CCC[C@H]1C(=O)N1CCC[C@H]1C(=O)NCC(=O)N[C@@H](Cc1ccccc1)C(=O)N[C@@H](CO)C(=O)N1CCC[C@H]1C(=O)N[C@@H](Cc1ccccc1)C(=O)N[C@@H](CCCN=C(N)N)C(=O)O [Lys-BK, reference compound]
Ki [1, 5]: < 0.1 µM

CSCC[C@H](N)C(=O)N[C@@H](CCCCN)C(=O)N[C@@H](CCCNC(=N)N)C(=O)N1CCC[C@H]1C(=O)N1CCC[C@H]1C(=O)NCC(=O)N[C@@H](Cc1ccccc1)C(=O)N[C@@H](CO)C(=O)N1CCC[C@H]1C(=O)N[C@@H](Cc1ccccc1)C(=O)N[C@@H](CCCNC(=N)N)C(=O)O [Met-Lys-BK, reference compound]
Ki [1, 5]: < 0.1 µM
